Data on three compounds can be found in patent US20080199422A1, “Method for the Treatment of Myelodysplastic Syndromes Using 1-Oxo-2-(2,6-Dioxopiperidin-3-Yl-)-4-Methylisoindoline” (CELGENE CORPORATION, priority 2004, published 2008).

Series [1] relates to TNF-α production. Conditions: human PBMC, cited from earlier work; for IC50: LPS, read-out: IC50 for inhibiting production of TNF-α following LPS-stimulation of PBMC.
Series [2] has as its system MDS patients. Nature of the series: Clinical study in MDS patients with transfusion-dependence or symptomatic anemia. The series is classed as in vivo, human. On the procedure:
Clinical studies were performed for the remitting potential of 3-(4-amino-1-oxo-1,3-dihydro-isoindol-2-yl)-piperidine-2,6-dione in MDS patients with red blood cell transfusion-dependence (>4 units/8 weeks) or symptomatic anemia (Hgb<10 g/dl). Patients received continuous treatment with 3-(4-amino-1-oxo-1,3-dihydro-isoindol-2-yl)-piperidine-2,6-dione at a oral dose of 25 mg daily. Responses were assessed according to IWG criteria after 16 weeks of treatments. Among 15 patients receiving the treatments, 11 patients were evaluable for toxicity, nine patients were evaluable for response (>8 wks therapy), and three patients discontinued the therapy prematurely (<2 weeks) due to cholecystitis, autoimmune hemolytic anemia, or patient refusal. Median age of the patients was 78 years ranging from 51 to 82 years. FAB types of the MDS patients include RA [4 patients], RARS [4 patients], RABB [6 patients], and RAEB-T [1 patient] with corresponding IPSS categories of Low/Int-1 in 11 patients and Int-2/High in four patients. Myelosuppression, which was characterized by higher than grade 3 common toxicity criteria or 50% decrease in leukocyte and platelet counts [9 patients], and grade 3 fatigue [1 patient], necessitated dose reduction to 10 mg in the initial ten patients. All subsequent patients initiated oral administrations with 10 mg daily. Grade 1, 2 drug-related adverse effects were limited to the 25 mg dose and included pruritus or itchy scalp [6 patients] and myalgia [1 patient]. Six (66%) of nine evaluable patients experienced hematologic benefit (dual lineage, 1 patient), including 6/7 (86%) patients with IPSS Low/Int-1. Hematologic responses included RBC transfusion-independence [4 patients], decrease in RBC transfusions of more than 50% [1 patient], increase in Hgb of more than 1.5 g [1 patient], and one minor platelet response (increase of more than 30,000/μL ). Among five patients evaluable for cytogenetic response, three patients achieved either a complete or partial (decrease in abnormal metaphases of more than 50%) remission. […] Correlation with changes in apoptotic index, angiogenic features (cellular/plasma VEGF, micro vessel density), cytokine generation, and proliferative fraction (Ki67) are in progress. […] Clinical benefit appears greatest in patients with low/intermediate-1 disease or the 5q-syndrome, associated with resolution of cytology dysplasia.

The test system of a further series is AML cells. Nature of the series: Mitogenic response to VEGF in AML cells. The class given is cell-based. The settings on record: by extinguishing ligand-induced Akt-phosphorylation. An excerpt: (§1) The pharmacological effects of 3-(4amino-1-oxo-1,3-dihydro-isoindol-2-yl)-piperidine-2,6-dione derive from its action as an inhibitor of cellular response to receptor-initiated trophic signals (e.g., IGF-1, VEGF, cyclooxygenase-2), and other activities. As a result, 3-(4-amino-1-oxo-1,3-dihydro-isoindol-2-yl)-piperidine-2,6-dione suppresses the generation of inflammatory cytokines, down-regulates adhesion molecules and apoptosis inhibitory proteins (e.g., cFLIP, cIAP), promotes sensitivity to death-receptor initiated programmed cell death, and suppresses angiogenic response.

The subject of series [3] is TNF-α production. Conditions: cited from earlier work.
For series [4], the system named is MDS bone marrow progenitor formation. The series is described as follows: MDS vs normal bone marrow progenitor formation in pre-clinical models. The series is classed as cell-based.
From the text: as §1

Series [5] concerns MDS patients. The series is described as follows: Expanded clinical study, additional 16 MDS patients. The series is classed as in vivo, human. From the text:
The clinical study was expanded with additional 16 MDS patients for at least eight weeks. According to the IPSS, 13 of these patients were categorized as low- or intermediate-1-risk patients and three patients were grouped as intermediate-2- or high-risk patients. According to the FAB classification, there were 11 patients with refractory anemia (RA) or RA with ringed sideroblasts (RARS), and five patients with RA with excess blasts (RAEB), RAEB in transformation (RAEB-T). The starting dose of 3-(4-amino-1-oxo-1,3-dihydro-isoindol-2-yl)-piperidine-2,6-dione was 25 mg daily for the first 13 patients and 10 mg daily for the remaining three patients. All patients receiving the starting dose of 25 mg required dose reduction by the completion of eight weeks therapy. Among these 16 patients who completed at least 8 weeks of monitoring, nine patients achieved an erythroid response as assessed by the International MDS Working Group Criteria. The erythroid responses consisted of transfusion independence in seven previously transfusion-dependent patients, a >2 g/dL rise in blood hemoglobin concentration in one patient in with transfusion-independent anemia, and a >50% decrease in RBC transfusion requirement in one transfusion-dependent patient. […] In addition, complete cytogenetic responses developed in five in eight patients with abnormal karyotypes at baseline. These five patients with complete cytogenetic responses all had the Del5q3 1-33 abnormality, which has been discovered to be a good prognostic factor for MDS. Indeed, all five patients who enrolled in this study with 5q-syndrome achieved a complete cytogenetic response and a major erythroid response. The study also indicated an association of this therapy with an increased apoptotic index for myelodysplastic progenitors and recovery of normal hematopoietic progenitor cells.

The subject of series [6] is MDS patients. Conditions: cited from earlier work.
Where [7] appears, read: 25 mg daily, initial ten patients, necessitated dose reduction to 10 mg.

Like-named read-outs stand apart in the source and are kept apart here.

As to `O=C1CCC(N2C(=O)c3ccccc3C2=O)C(=O)N1` (racemic) [Thalidomide, 2-(2,6-dioxo-3-piperidinyl)-1H-isoindole-1,3(2H)-dione, reference compound], in the series on TNF-α production [1], the IC50 is around 194000 nM and the “IC50 for inhibiting production of TNF-α following LPS-stimulation of PBMC” value was around 50.2 µg/mL.
Turning to `Nc1cccc2c1CN(C1CCC(=O)NC1=O)C2=O` (stereo not drawn) [3-(4-amino-1-oxo-1,3-dihydro-isoindol-2-yl)-piperidine-2,6-dione], the tolerability entry in the series on MDS patients [2] (10 mg continuous oral daily dose) is given as “well-tolerated with minimal myelosuppression”. Besides, in the series with MDS patients [2] (setting [7]), the “grade 3 fatigue” value is listed as 1 patient; the “myelosuppression (higher than grade 3 common toxicity criteria or 50% decrease in leukocyte and platelet counts)” value is 9 patients. Also, in the series with MDS patients [2] (25 mg dose), the “Grade 1, 2 drug-related myalgia” value is 1 patient and the “Grade 1, 2 drug-related pruritus or itchy scalp” value is given as 6 patients. In the series with MDS patients [2] (6/7 patients with IPSS Low/Int-1), the “patients with hematologic benefit, IPSS Low/Int-1” value is 86%. For the same compound, in the series with MDS patients [2] (among five patients evaluable for cytogenetic response), the “complete or partial cytogenetic remission (decrease in abnormal metaphases of more than 50%)” value is “three”. In the series with MDS patients [2] (of nine evaluable patients), the RBC transfusion-independence was determined as 4 patients, the “decrease in RBC transfusions of more than 50%” value came out at 1 patient, the “increase in Hgb of more than 1.5 g” value came to 1 patient and the “minor platelet response (increase of more than 30,000/μL)” value was “one”. For the same compound, in the series on MDS patients [2] (patients with low/intermediate-1 risk MDS), the “erythropoietic and cytogenetic remitting activity” value is “remarkable erythropoietic and cytogenetic remitting activity”. Further, the “normalization of blast percentage” value in the series on MDS patients [2] (responders) amounted to 1 patient. Also, the “patients with hematologic benefit” value with MDS patients [2] (six of nine evaluable patients, oral 25 mg daily, reduced to 10 mg, IWG criteria) is 66%. For the same compound, in the series with TNF-α production [1], the half-inhibitory concentration (IC50) was around 100 nM and the “IC50 for inhibiting production of TNF-α following LPS-stimulation of PBMC” value is around 0.0259 µg/mL. The “mitogenic response to VEGF” value in the series with AML cells is “abrogates mitogenic response to VEGF”. In addition, the “IC50 for inhibiting production of TNF-α following LPS-stimulation of human whole blood” value with TNF-α production [3] was around 0.1036 µg/mL. Further, the IC50 in the series on TNF-α production [3] (human whole blood, LPS, read-out: IC50 for inhibiting production of TNF-α following LPS-stimulation of human whole blood) is around 480 nM. Moreover, in series [4], the “MDS vs normal bone marrow progenitor formation” value was “selectively suppresses”. For the same compound, the “erythroid response (International MDS Working Group Criteria)” value in the series with MDS patients [5] (among 16 patients, at least 8 weeks, start 25 mg or 10 mg daily) is recorded as “nine”. Also, the complete cytogenetic responses entry in the series with MDS patients [5] (in eight patients with abnormal karyotypes at baseline) is “five”. Further, in the series on MDS patients [5] (of 16 patients), the major erythroid response result is “eight”, the minor erythroid response entry was “one” and the minor platelet response result was “One”. In addition, the “complete cytogenetic response and major erythroid response in 5q-syndrome” value in the series with MDS patients [5] (patients enrolled with 5q-syndrome) was “all five”. In addition, the transfusion independence result with MDS patients [5] (previously transfusion-dependent patients) is “seven”. Further, the “patients requiring dose reduction by completion of eight weeks therapy” value in the series with MDS patients [5] (starting dose of 25 mg (first 13 patients)) is on record as “All patients”. In addition, the “>50% decrease in RBC transfusion requirement” value in the series on MDS patients [5] (transfusion-dependent patient) is given as “one”. Also, the “>2 g/dL rise in blood hemoglobin concentration” value with MDS patients [5] (transfusion-independent anemia) is recorded as “one”.
Turning to “recombinant human EPO: recombinant human erythropoietin (EPO), hematopoietic growth factor”, the “patients with sustained improvement in hemoglobin or decrease in transfusion requirement” value with MDS patients [6] is “less than 25%”.
